Results published in patent US11013830B2, “5-hydroxytryptamine 1B receptor-stimulating agent for enhancing in vivo engraftment potential” (INSTITUT PASTEUR, priority 2015, dated 2021).

Experiments:
muscle stem cells [1] = conditions: fluoxetine 18 mg/Kg for 6 weeks; after 21 days; n=8; placebo 25.7%±8.7
Description: Mice were anesthetised and injured with cardiotoxin 18 hours before grafting in the tibialis anterior. Before grafting the mice were anesthetised again and grafted with 10,000 cells in 40 nl in PBS. Mice were kept for 28 days until muscle regeneration was complete. […] Mice were sacrificed 5 weeks after the injection.
Tibialis anterior was carefully dissected and snap frozen in liquid-nitrogen-cooled isopentane for a few minutes and stored at −80° C. prior to cryosectioning (10 μm sections). Sections were kept at room temperature overnight before staining. Sections were then rehydrated in PBS for 10 minutes and fixed in 10% formalin for 3 minutes. The sections were then routinely stained with PLAP antibody manually.
Fluoxetine treatment was provided at 18 mg/Kg for 6 weeks to Rag^−/−γc^−/− mice. The tibialis anterior (TA) was injured and 18 h post injury 10,000 satellite cells (SC) coming from Tg:Pax7nGFP:PLAP:MyHC2E3FLacZ triple transgenic mice were grafted to the Rag^−/−γc^−/− mice pre-treated with fluoxetine.

bone marrow cells = assay: Engraftment of Tg:ActinGFP bone marrow cells in irradiated Rag-/-γc-/- mice, GFP+ cells by cytometry; type: in vivo
Text: For bone marrow analysis, animals were sacrificed and bone marrow was flushed and filtered through 40 μm cell strainer. The bulk was then directly assessed using Gallios A94303 (Beckman Coulter) and analysed with Kaluza flow cytometry software.
In order to investigate the potential effect of fluoxetine and vortioxetine on the bone marrow engraftment potential, Rag^−/−γc^−/− immunodeficient mice were used. These mice were irradiated at 95 cGy and then injected intravenously with 2 million cells taken from Tg:ActinGFP mouse (Okabe et al., 1997), to track the fate of the grafted cells.
Rag^−/−γc^−/− mice were treated with fluoxetine per os at 18 mg/Kg for 6 weeks. […] The number of GFP+ cells were investigated after 5 weeks in the bone marrow (the treatment was never discontinued). 63.7%±6.5 of GFP+ cells were detected in the placebo mice and 80.7%±8.4 GFP+ cells in the fluoxetine treated mice (p=0.0023, n=7, FIG. 2b,c). There was thus a 25% increase in engraftment efficiency in the fluoxetine treated animals.
To investigate the potential effect of vortioxetine on the engraftment potential, the same approach was used. The Rag^−/−γc^−/− were treated for 12 days by intra peritoneal injections at 20 mg/Kg. Twelve days after the beginning of the treatment, the mice were irradiated at 95 cGy and intravenously grafted with 2 million freshly isolated bone marrow cells from Tg:ActinGFP. 5 weeks after grafting the mice were sacrificed and bone marrow was flushed and analysed (FIG. 2d). The number of GFP+ cells was investigated after 5 weeks in the bone marrow (the treatment was never discontinued). 65.8%±5.5 cells were found in the placebo mice while 80.2%±5.8 cells were found in the vortioxetine treated animals (p=0.0079, n=5, FIG. 2e). There was thus a 21% increase in engraftment potential of bone marrow cells after vortioxetine treatment.
To further characterise the timing of vortioxetine beneficial effects, the previous experiment was repeated without 12 days of pre-treatment (FIG. 2e,f). Rag^−/−γc^−/− were irradiated and grafted 2 hours post irradiation fresh bone marrow from Tg:ActinGFP mice. The same placebo was used displaying 65.8%±5.5 of GFP+ cells and 77.2%7.6 GFP+ cells in the vortioxetine treated animals at the time of the irradiation (p=0.04, n=5, FIG. 2e,g). A similar increase in engraftment potential (17%) was observed when animals were not pre-treated.

muscle stem cells [2] = assay: Engraftment of grafted muscle stem cells (satellite cells) in cardiotoxin-injured tibialis anterior of Rag-/-γC-/- mice; type: in vivo; conditions: 28 days post injury
Description: For image analysis, ImageJ 1.46r software was using between 10 different photos randomly taken per section and 3 sections minimum per experimental group. The pictures were converted in a binary image and then the pixel values were collected. For fibre size, the sections were immunostained with rabbit anti Laminin (Sigma-Aldrich #L9393) diluted at 1/200, overnight at 4° C. Secondary Donkey ant Rabbit 488 (DL488 JacksonImmuno #711486152) were used at 1/200 45 minutes at room temperature. The fibre perimeter was done automatically by using Pixcavator® software.
In order to investigate the potential effect of fluoxetine and vortioxetine on the muscle engraftment potential, Rag^−/−γC^−/− immunodeficient mice (Sanchez et al., 2013) were used in this study. Mice were injured with cardiotoxin in the tibialis anterior (TA) and injected with 10,000 satellite cells (SC) 24 hours after the injury. The satellite cells (SC) were obtained from Tg:Pax7nGFP::PLAP mice (Deprimo et al., 1996; Rocheteau et al., 2012), allowing the prospective isolation of a pure population of SC by FACS (Pax7 being a specific marker of SC) and the follow up (PLAP placental alkaline phosphatase being an ubiquitous marker). The TA had been sampled 28 days post engraftment and the number of PLAP fibres was counted.
The Rag^−/−γC^−/− were treated for 6 weeks with fluoxetine per os at 18 mg/Kg at the time of the graft and the treatment continued during the regeneration process (FIG. 1a). When regeneration was completed 28 days post injury, the percentage of PLAP positive fibres was 20.5%±6.5 against 36%±6.2 in the treated animals (p=0.016; n=5, FIG. 1b-d).
To investigate the potential effect of vortioxetine on the engraftment potential, the same approach was used. The Rag^−/−γC^−/− were treated for 12 days by intra peritoneal injections at 20 mg/Kg. Twelve days after the beginning of the treatment, the mice were injured and grafted with Pax7nGFP:PLAP SC. The treatment was continuous during the entire regenerative process (FIG. 1e). 28 days post injury the TA were sampled and stained for Laminin and PLAP. 19%±7.7 fibres were PLAP+ after placebo treatment against 36.1%±5.7 in the vortioxetine treated animals (p=0.028, n=4, FIG. 1f-h).

SMILES | percentage of fibers PLAP+ (coming from the graft) (muscle stem cells [1]) | GFP+ cells in the bone marrow (bone marrow cells; fluoxetine per os 18 mg/Kg for 6 weeks before irradiation/graft, never discontinued, 5 weeks after grafting, n=7, placebo 63.7%±6.5) | increase in engraftment efficiency versus placebo (bone marrow cells; fluoxetine per os 18 mg/Kg, 6 weeks pre-treatment, 5 weeks after grafting) [%] | percentage of PLAP positive fibres (muscle stem cells [2]; fluoxetine per os 18 mg/Kg for 6 weeks before graft and continued, n=5, placebo 20.5%±6.5) | engraftment potential of the injected SC versus placebo (muscle stem cells [2]; fluoxetine per os 18 mg/Kg, 6 weeks pre-treatment) | increase in engraftment potential of bone marrow cells versus placebo (bone marrow cells; vortioxetine 20 mg/Kg, 12 days pre-treatment, 5 weeks after grafting) [%] | GFP+ cells in the bone marrow (bone marrow cells; vortioxetine intra peritoneal 20 mg/Kg for 12 days before irradiation/graft, never discontinued, 5 weeks after grafting, n=5, placebo 65.8%±5.5) | GFP+ cells in the bone marrow (bone marrow cells; vortioxetine started at the time of the irradiation, without 12 days of pre-treatment, 5 weeks after grafting, n=5, placebo 65.8%±5.5) [%] | increase in engraftment potential versus placebo (bone marrow cells; vortioxetine, animals not pre-treated) [%] | percentage of PLAP+ fibres (muscle stem cells [2]; vortioxetine intra peritoneal 20 mg/Kg for 12 days before graft and continued, n=4, placebo 19%±7.7) | engraftment potential of the injected SC versus placebo (muscle stem cells [2]; vortioxetine intra peritoneal 20 mg/Kg, 12 days pre-treatment)
CNCCC(Oc1ccc(C(F)(F)F)cc1)c1ccccc1 (centres unmarked) [fluoxetine] | 39%±6.6 | 80.7%±8.4 | 25 | 36%±6.2 | almost doubled | – | – | – | – | – | –
Cc1ccc(Sc2ccccc2N2CCNCC2)c(C)c1 [vortioxetine, 1-[2-(2,4-Dimethylphenylsulfanyl)phenyl]piperazine] | – | – | – | – | – | 21 | 80.2%±5.8 | 77.2 | 17 | 36.1%±5.7 | more than doubled
